Values after ≈ are worked out from the molar mass of the structure shown. Where two headings read alike, the source gives them in different places. Where a SMILES comes first, the peptide text is derived from it. Bridges are numbered along the chain shown (N, C = ends). [ ]: non-standard residue; d: D form. The star is where a group is joined. Indazole3carbonyl = O=C(c1n[nH]c2ccccc12)*; X1 = O=C(c1ncc(Cl)cc1Cl)*; X50 = O=C(c1sc(Br)cc1Br)*; Dab = NCC[C@H](N)C(=O)O; X68 = O=C(c1coc(Br)c1)*; Abu = CC[C@H](N)C(=O)O; Dap = NC[C@H](N)C(=O)O
Tests used:
Assay type in all cases: cell-based
[1] = system: Pseudomonas aeruginosa FADDI-PA022
In short: (§1)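 Following CLSI procedure M100-S24, minimum inhibitory concentrations of trifluoroacetate lipopeptides are measured in cation-adjusted Mueller-Hinton medium by broth microdilution, alongside a polymyxin B sulphate control.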

[2] = system: Acinetobacter baumannii ATCC 17978
In short: as §1

[3] = system: Pseudomonas aeruginosa ATCC 27853
In short: as §1

[4] = system: Enterobacter cloacae FADDI-EC001
In short: as §1

[5] = system: Klebsiella pneumoniae Kp BM1
In short: as §1

[6] = system: Klebsiella pneumoniae FADDI-KP032
In short: as §1

[7] = system: Pseudomonas aeruginosa FADDI-PA01
In short: as §1

[8] = system: Enterobacter cloacae FADDI-EC006
In short: as §1

[9] = system: Pseudomonas aeruginosa FADDI-PA038
In short: as §1

[10] = system: Klebsiella pneumoniae FADDI-KP022
In short: as §1

[11] = system: Acinetobacter baumannii FADDI-AB034
In short: as §1

[12] = system: Enterobacter cloacae FADDI-EC003
In short: as §1

[13] = system: Acinetobacter baumannii FADDI-AB030; test: microbe, parasite or virus in culture
In short: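 Lipopeptide TFA salts tested against the multidrug-resistant clinical isolate by CLSI (M100-S24) broth microdilution in cation-adjusted Mueller-Hinton broth, with polymyxin B sulphate as control; MIC read.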

## CC[C@@H]1NC(=O)[C@@H](CC(C)C)NC(=O)[C@H](CCN)NC(=O)[C@@H](NC(=O)[C@H](CN)NC(=O)[C@@H](NC(=O)[C@H](CCN)NC(=O)c2sc(Br)cc2Br)[C@@H](C)O)CCNC(=O)[C@H]([C@@H](C)O)NC(=O)[C@H](CCN)NC(=O)[C@H](CCN)NC1=O [Compound 85] (X50-[Dab]T[Dap][Dab][Dab][dL][Abu][Dab][Dab]T; lactam 4-C)
[1]; FADDI-PA022
  Minimum inhibitory concentration: 0.25 µg/mL (≈ 0.199 µM)
[2]; ATCC 17978
  Minimum inhibitory concentration: <0.125 µg/mL
[3]; ATCC 27853
  Minimum inhibitory concentration: 0.25 µg/mL (≈ 0.199 µM)
[4]; FADDI-EC001
  Minimum inhibitory concentration: 0.25 µg/mL (≈ 0.199 µM)
[5]; Kp BM1
  Minimum inhibitory concentration: 0.25 µg/mL (≈ 0.199 µM)
[6]; FADDI-KP032
  Minimum inhibitory concentration: <0.125 µg/mL
[7]; FADDI-
  Minimum inhibitory concentration: 0.25 µg/mL (≈ 0.199 µM)
[8]; FADDI-EC006
  Minimum inhibitory concentration: <0.125 µg/mL
[9]; FADDI-PA038
  Minimum inhibitory concentration: 0.5 µg/mL (≈ 0.398 µM)
[10]; FADDI-KP022
  Minimum inhibitory concentration: <0.125 µg/mL
[11]; FADDI-AB034
  Minimum inhibitory concentration: 0.25 µg/mL (≈ 0.199 µM)
[12]; FADDI-EC003
  Minimum inhibitory concentration: 0.25 µg/mL (≈ 0.199 µM)
[13]; FADDI-AB030
  Minimum inhibitory concentration: <0.125 µg/mL

## CC(C)C[C@H]1NC(=O)[C@H](CCN)NC(=O)[C@@H](NC(=O)[C@H](CN)NC(=O)[C@@H](NC(=O)[C@H](CCN)NC(=O)c2ncc(Cl)cc2Cl)[C@@H](C)O)CCNC(=O)[C@H]([C@@H](C)O)NC(=O)[C@H](CCN)NC(=O)[C@H](CCN)NC(=O)[C@H](C(C)C)NC1=O [Compound 13] (X1-[Dab]T[Dap][Dab][Dab][dL]V[Dab][Dab]T; lactam 4-C)
[1]; FADDI-PA022
  Minimum inhibitory concentration: 0.5 µg/mL (≈ 0.425 µM)
[2]; ATCC 17978
  Minimum inhibitory concentration: 1 µg/mL (≈ 0.851 µM)
[3]; ATCC 27853
  Minimum inhibitory concentration: 0.5 µg/mL (≈ 0.425 µM)
[4]; FADDI-EC001
  Minimum inhibitory concentration: <0.125 µg/mL
[5]; Kp BM1
  Minimum inhibitory concentration: 0.25 µg/mL (≈ 0.213 µM)
[6]; FADDI-KP032
  Minimum inhibitory concentration: 0.25 µg/mL (≈ 0.213 µM)
[7]; FADDI-
  Minimum inhibitory concentration: 0.5 µg/mL (≈ 0.425 µM)
[8]; FADDI-EC006
  Minimum inhibitory concentration: <0.125 µg/mL
[9]; FADDI-PA038
  Minimum inhibitory concentration: 1 µg/mL (≈ 0.851 µM)
[10]; FADDI-KP022
  Minimum inhibitory concentration: 0.25 µg/mL (≈ 0.213 µM)
[11]; FADDI-AB034
  Minimum inhibitory concentration: 2 µg/mL (≈ 1.7 µM)
[12]; FADDI-EC003
  Minimum inhibitory concentration: <0.125 µg/mL
[13]; FADDI-AB030
  Minimum inhibitory concentration: 0.5 µg/mL (≈ 0.425 µM)

## CC[C@@H]1NC(=O)[C@@H](CC(C)C)NC(=O)[C@H](CCN)NC(=O)[C@@H](NC(=O)[C@H](CN)NC(=O)[C@@H](NC(=O)[C@H](CCN)NC(=O)c2coc(Br)c2)[C@@H](C)O)CCNC(=O)[C@H]([C@@H](C)O)NC(=O)[C@H](CCN)NC(=O)[C@H](CCN)NC1=O [Compound 103] (X68-[Dab]T[Dap][Dab][Dab][dL][Abu][Dab][Dab]T; lactam 4-C)
[1]; FADDI-PA022
  Minimum inhibitory concentration: 0.5 µg/mL (≈ 0.431 µM)
[2]; ATCC 17978
  Minimum inhibitory concentration: 1 µg/mL (≈ 0.862 µM)
[3]; ATCC 27853
  Minimum inhibitory concentration: 0.5 µg/mL (≈ 0.431 µM)
[4]; FADDI-EC001
  Minimum inhibitory concentration: 0.5 µg/mL (≈ 0.431 µM)
[5]; Kp BM1
  Minimum inhibitory concentration: 0.5 µg/mL (≈ 0.431 µM)
[6]; FADDI-KP032
  Minimum inhibitory concentration: 0.5 µg/mL (≈ 0.431 µM)
[7]; FADDI-
  Minimum inhibitory concentration: 0.5 µg/mL (≈ 0.431 µM)
[8]; FADDI-EC006
  Minimum inhibitory concentration: 0.5 µg/mL (≈ 0.431 µM)
[9]; FADDI-PA038
  Minimum inhibitory concentration: 2 µg/mL (≈ 1.72 µM)
[10]; FADDI-KP022
  Minimum inhibitory concentration: <0.125 µg/mL
[11]; FADDI-AB034
  Minimum inhibitory concentration: 1 µg/mL (≈ 0.862 µM)
[12]; FADDI-EC003
  Minimum inhibitory concentration: 0.5 µg/mL (≈ 0.431 µM)
[13]; FADDI-AB030
  Minimum inhibitory concentration: 1 µg/mL (≈ 0.862 µM)

## CC[C@@H]1NC(=O)[C@@H](CC(C)C)NC(=O)[C@H](CCN)NC(=O)[C@@H](NC(=O)[C@H](CN)NC(=O)[C@@H](NC(=O)[C@H](CCN)NC(=O)c2n[nH]c3ccccc23)[C@@H](C)O)CCNC(=O)[C@H]([C@@H](C)O)NC(=O)[C@H](CCN)NC(=O)[C@H](CCN)NC1=O [Compound 54] (Indazole3carbonyl-[Dab]T[Dap][Dab][Dab][dL][Abu][Dab][Dab]T; lactam 4-C)
[1]; P. aeruginosa FADDI-PA022, CAMHB broth microdilution
  Minimum inhibitory concentration: 0.5 µg/mL (≈ 0.442 µM)
[2]; A. baumannii ATCC 17978, CAMHB broth microdilution
  Minimum inhibitory concentration: 1 µg/mL (≈ 0.884 µM)
[3]; P. aeruginosa ATCC 27853, CAMHB broth microdilution
  Minimum inhibitory concentration: 0.5 µg/mL (≈ 0.442 µM)
[4]; E. cloacae FADDI-EC001, CAMHB broth microdilution
  Minimum inhibitory concentration: <0.125 µg/mL
[5]; K. pneumoniae Kp BM1, CAMHB broth microdilution
  Minimum inhibitory concentration: <0.125 µg/mL
[6]; K. pneumoniae FADDI-KP032, CAMHB broth microdilution
  Minimum inhibitory concentration: <0.125 µg/mL
[7]; P. aeruginosa FADDI-PA01, CAMHB broth microdilution
  Minimum inhibitory concentration: 0.25 µg/mL (≈ 0.221 µM)
[8]; E. cloacae FADDI-EC006, CAMHB broth microdilution
  Minimum inhibitory concentration: 0.5 µg/mL (≈ 0.442 µM)
[9]; P. aeruginosa FADDI-PA038, CAMHB broth microdilution
  Minimum inhibitory concentration: 0.25 µg/mL (≈ 0.221 µM)
[10]; K. pneumoniae FADDI-KP022, CAMHB broth microdilution
  Minimum inhibitory concentration: <0.125 µg/mL
[11]; A. baumannii FADDI-AB034, CAMHB broth microdilution
  Minimum inhibitory concentration: 0.5 µg/mL (≈ 0.442 µM)
[12]; E. cloacae FADDI-EC003, CAMHB broth microdilution
  Minimum inhibitory concentration: 0.5 µg/mL (≈ 0.442 µM)
[13]; A. baumannii FADDI-AB030, CAMHB broth microdilution
  Minimum inhibitory concentration: 0.25 µg/mL (≈ 0.221 µM)

— patent publication US11225505B2, “Antimicrobial polymyxin derivative compounds” (MONASH UNIVERSITY, priority 2015, dated 2022)
